Values of other authors in patent US20140142181A1, “TREATING AND INHIBITING RECURRENCE OF MUSCLE CRAMPS” (priority 2012, published 2014).

Legend:
cramping = conditions: 39 Division I baseball players; creatine supplementation during training and competition
[1] = received by USFDA; quinine use

Cramping, creatine group versus non-creatine group (cramping) | SMILES | Deaths among reported adverse events [1] | Reports of adverse events with serious outcomes [1]
no significant difference | CN(CC(=O)O)C(=N)N [creatine] |  | 
 | C=C[C@H]1C[N@@]2CC[C@H]1C[C@H]2[C@H](O)c1ccnc2ccc(OC)cc12 [quinine, Quinine] | 93 | 665
